# Measured values taken from US20030175745A1, “Peptides with growth inhibitory action” (priority 2001, published 2003).
# Where a SMILES comes first, the peptide text is derived from it.
# Assays:
# NIH3T3-PDGF-ββ cells = test: Growth assay with NIH3T3-PDGF-ββ cells, cell number by PicoGreen DNA; format: cell-based; conditions: for inhibition compared to the base medium (BITS): Example 4 (Table 2); for % of control cell growth: 5 days, BITS medium
# Protocol: NIH 3T3 cells transfected with PDGF-ββ (a stable cell line) were obtained from Mount Sinai School of Medicine. These cells overexpress PDGF-ββ and are activated via the PDGF-R in an autocrine fashion. Cells were grown at 37° C. in Dulbecco's Modified Eagles Medium (high glucose) (DMEM) with 10% heat-inactivated fetal calf serum (FCS) with 100 units or μg/ml penicillin/streptomycin with 750 μg/ml G418 sulfate (Geneticin) selection. Cells were incubated in an atmosphere of 5% CO2, and cultures were fed twice weekly. For subcultivation, cells were allowed to attain confluence and washed twice with PBS or Hank's balanced salt solution (minus Ca^++ and Mg^++) before addition of a trypsin/EDTA solution to dislodge the cells. Cells were split anywhere from ¼ to 1/12 into a sterile T-75 Flask depending on the time desired until confluence.
# To identify peptides that inhibit cell growth in culture, candidate peptides were screened in a growth assay with NIH3T3-PDGF-ββ cells. Cells were expanded in DMEM containing G418 as described above. […] Growth medium was removed and the peptide solution added (250 μl/well). Cells were incubated for 5 days without feeding prior to testing. After this time, growth of cells treated with each peptide was compared to growth in control medium (no peptide added).
# Cell number was assessed by measurement of total cellular double-stranded DNA using the PicoGreen Assay Kit (Molecular Probes, Eugene, Oreg., USA, lot #6405-1). For PicoGreen analysis, cell lysates (100 μl ) were added to 100 µl of the dye solution prepared by diluting the PicoGreen dye (1:200 in 1× TE according to the manufacturer's instructions). Plates were read after five minutes in a fluorimeter (irradiated at an excitation wavelength of 485 nm). Fluorescence emission was measured at 530 nm using a CytoFluor Series 4000 (PerSeptive Biosystems, Framingham, Mass.). For correlating DNA level to cell number, a standard curve was established for the NIH3T3-PDGF-ββ cells. For analysis, DNA absorbance/emission was compared to the absorbance/emission shown by a standard curve of DNA.
# PDGF-R = conditions: in the μM range; cited from earlier work
# PDGF β receptor = PDGF β receptor (Homo sapiens, UniProt P09619); conditions: cited from earlier work
# α-type PDGF-R = α-type PDGF-R (Homo sapiens, UniProt P16234); conditions: high concentrations; cited from earlier work
# Chain of α-type PDGF-R (P16234 24-1089): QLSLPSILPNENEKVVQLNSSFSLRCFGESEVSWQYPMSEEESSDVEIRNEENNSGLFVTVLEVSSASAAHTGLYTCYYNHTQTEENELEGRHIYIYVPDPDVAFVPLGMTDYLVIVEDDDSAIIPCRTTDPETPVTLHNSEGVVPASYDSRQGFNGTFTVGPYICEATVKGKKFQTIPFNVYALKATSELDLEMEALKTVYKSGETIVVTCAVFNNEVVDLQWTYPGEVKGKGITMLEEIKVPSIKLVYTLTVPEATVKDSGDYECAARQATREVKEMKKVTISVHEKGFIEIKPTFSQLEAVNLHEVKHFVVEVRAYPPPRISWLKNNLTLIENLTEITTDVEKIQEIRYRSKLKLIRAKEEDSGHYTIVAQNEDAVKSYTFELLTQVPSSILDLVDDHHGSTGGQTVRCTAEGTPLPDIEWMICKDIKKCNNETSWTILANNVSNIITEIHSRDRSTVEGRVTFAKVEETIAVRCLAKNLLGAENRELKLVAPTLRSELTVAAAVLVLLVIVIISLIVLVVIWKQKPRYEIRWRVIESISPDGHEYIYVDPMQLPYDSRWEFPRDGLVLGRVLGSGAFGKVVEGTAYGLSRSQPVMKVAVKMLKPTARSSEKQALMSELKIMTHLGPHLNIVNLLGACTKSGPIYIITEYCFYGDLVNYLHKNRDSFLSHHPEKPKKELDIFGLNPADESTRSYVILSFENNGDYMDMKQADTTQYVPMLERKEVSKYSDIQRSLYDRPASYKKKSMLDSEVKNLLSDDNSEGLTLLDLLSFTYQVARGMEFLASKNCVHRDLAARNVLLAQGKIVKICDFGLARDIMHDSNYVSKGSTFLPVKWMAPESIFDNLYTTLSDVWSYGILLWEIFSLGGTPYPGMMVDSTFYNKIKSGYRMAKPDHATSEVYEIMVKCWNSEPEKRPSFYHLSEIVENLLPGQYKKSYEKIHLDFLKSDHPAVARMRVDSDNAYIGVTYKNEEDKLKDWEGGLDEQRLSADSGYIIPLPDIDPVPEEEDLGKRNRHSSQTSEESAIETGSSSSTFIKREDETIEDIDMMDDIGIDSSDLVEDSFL
# Chain of PDGF β receptor (P09619 33-1106): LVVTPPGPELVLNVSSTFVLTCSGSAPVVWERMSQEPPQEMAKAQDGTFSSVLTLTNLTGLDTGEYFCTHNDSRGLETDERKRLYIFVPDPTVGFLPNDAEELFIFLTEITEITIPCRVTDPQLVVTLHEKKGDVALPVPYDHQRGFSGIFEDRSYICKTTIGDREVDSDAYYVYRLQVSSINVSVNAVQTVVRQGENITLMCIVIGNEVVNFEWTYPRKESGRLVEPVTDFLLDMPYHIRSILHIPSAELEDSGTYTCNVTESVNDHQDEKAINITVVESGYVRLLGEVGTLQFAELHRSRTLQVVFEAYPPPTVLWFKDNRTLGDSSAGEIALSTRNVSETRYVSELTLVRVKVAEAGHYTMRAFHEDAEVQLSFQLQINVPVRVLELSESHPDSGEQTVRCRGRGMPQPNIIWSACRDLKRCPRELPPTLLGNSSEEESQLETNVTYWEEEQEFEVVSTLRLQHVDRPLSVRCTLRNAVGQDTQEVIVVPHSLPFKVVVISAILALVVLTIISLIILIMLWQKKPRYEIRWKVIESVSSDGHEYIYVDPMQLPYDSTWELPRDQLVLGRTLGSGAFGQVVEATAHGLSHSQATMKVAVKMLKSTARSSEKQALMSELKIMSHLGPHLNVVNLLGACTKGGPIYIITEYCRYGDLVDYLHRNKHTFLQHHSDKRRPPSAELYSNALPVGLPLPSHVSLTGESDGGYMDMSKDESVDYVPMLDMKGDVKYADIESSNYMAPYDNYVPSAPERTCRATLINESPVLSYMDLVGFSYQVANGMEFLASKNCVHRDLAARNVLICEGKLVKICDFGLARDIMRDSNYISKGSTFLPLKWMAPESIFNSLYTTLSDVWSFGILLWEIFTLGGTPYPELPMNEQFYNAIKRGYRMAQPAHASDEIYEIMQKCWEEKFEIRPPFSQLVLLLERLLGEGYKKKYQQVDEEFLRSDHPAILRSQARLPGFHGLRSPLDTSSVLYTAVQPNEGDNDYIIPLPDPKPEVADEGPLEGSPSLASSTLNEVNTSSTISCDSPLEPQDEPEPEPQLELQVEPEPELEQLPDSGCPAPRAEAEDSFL
Compound,inhibition compared to the base medium (BITS) (NIH3T3-PDGF-ββ cells; 6 mM peptide),inhibition compared to the base medium (BITS) (NIH3T3-PDGF-ββ cells; 12 mM peptide),"% of control cell growth (NIH3T3-PDGF-ββ cells; Table 2, 1 mM peptide)","% of control cell growth (NIH3T3-PDGF-ββ cells; Table 2, 3 mM peptide)","% of control cell growth (NIH3T3-PDGF-ββ cells; Table 2, 6 mM peptide)","% of control cell growth (NIH3T3-PDGF-ββ cells; Table 2, 12 mM peptide)",growth inhibition in the initial screen of the library (NIH3T3-PDGF-ββ cells),other results
NCCCC[C@H](NC(=O)[C@H](CCCCN)NC(=O)[C@H](CCCCN)NC(=O)[C@@H](N)CCCCN)C(=O)O [KKKK] (H-KKKK-OH),59%,82%,105%,72%,41%,17%,–,"inhibition of cell growth compared to control medium (BITS) (NIH3T3-PDGF-ββ cells; Example 3, KKKK (Bachem) 3 mM): 21%; inhibition of cell growth compared to control medium (BITS) (NIH3T3-PDGF-ββ cells; Example 3, KKKK (Bachem) 6 mM): 36%; % of control cell growth (NIH3T3-PDGF-ββ cells; Table 1, KKKK (Bachem) 3 mM): 78%; % of control cell growth (NIH3T3-PDGF-ββ cells; Table 1, KKKK (Bachem) 6 mM): 65%; % of control cell growth (NIH3T3-PDGF-ββ cells; Table 1, KKKK (Bachem) 12 mM): 39%"
Cc1ccc(C(=O)Nc2ccc(S(=O)(=O)O)c3cc(S(=O)(=O)O)cc(S(=O)(=O)O)c23)cc1NC(=O)c1cccc(NC(=O)Nc2cccc(C(=O)Nc3cc(C(=O)Nc4ccc(S(=O)(=O)O)c5cc(S(=O)(=O)O)cc(S(=O)(=O)O)c45)ccc3C)c2)c1 [suramin],–,–,–,–,–,–,–,inhibition of PDGF binding to PDGF R (PDGF-R): 100%
"DDEEK (printed: ASP ASP GLU GLU LYS) [pentapeptide ASP ASP GLU GLU LYS, from Bachem]",91%,84%,108%,93%,11%,16%,inhibiting growth,relative potency in inhibiting cell growth (NIH3T3-PDGF-ββ cells; 6 mM): most potent inhibitor
"FFFKK (printed: PHE PHE PHE LYS LYS) [pentapeptide PHE PHE PHE LYS LYS, from Bachem]",29%,82%,111%,103%,69%,18%,inhibiting growth,–
"FFHPV (printed: PHE PHE HIS PRO VAL) [pentapeptide PHE PHE HIS PRO VAL, from Bachem]",14%,–,116%,111%,85%,–,inhibiting growth,"inhibition compared to the base medium (BITS) (NIH3T3-PDGF-ββ cells; 9.5 mM peptide): 82%; % of control cell growth (NIH3T3-PDGF-ββ cells; Table 2, 9.5 mM peptide): 16%"
"KLMSY (printed: LYS LEU MET SER TYR) [pentapeptide LYS LEU MET SER TYR, from Bachem]",23%,91%,127%,126%,76%,10%,inhibiting growth,–
neomycin,–,–,–,–,–,–,–,inhibition of binding to the PDGF β receptor (PDGF β receptor): not able to inhibit; inhibition of binding of PDGF-ββ to the α-type PDGF-R (α-type PDGF-R): inhibited
